The values that follow come from patent publication US20130123261A1, “ISOXAZOLINE COMPOUNDS IN TYPE 2 DIABETES AND OTHER MALADIES” (CPSI STOCKHOLDER TRUST, priority 2009, published 2013).

This experiment has as its system STZ-induced NIDDM in outbred ICR mice. In words: Effect of orally administered MIF antagonist on STZ-induced NIDDM in ICR mice. The format is in vivo. As to conditions: for blood glucose levels: STZ 90 mg/Kg i.p., oral, daily single dose for 30 days; for blood glucose levels / serum levels of inflammatory cytokines / pro-inflammatory cytokine production: dose not stated. As for the experimental part: ICR, MIF−/− BALB/c and BALB/c mice were fasted 20 hr before induction of diabetes with a single i.p. injection of STZ 90 mg/Kg (for ICR mice) or 130 mg/kg (for BALB/c mice) (Sigma, St. Louis, Mo., U.S.A.) freshly dissolved in 0.05 M citrate buffer, pH 4.5 following the protocol previously reported (13;14). Normal mice of each strain were injected with equivalent volume of citrate buffer as negative controls.
Blood samples from WT and MIF−/− mice were collected at 0, 1, 2, 4, 6, 8, and 10 weeks after STZ injection by tail snipping. Serum glucose levels were determined using Accu-Chek® glucometer. Body weights were measured immediately before blood collection. The animals were kept in individual metabolic cages for 24 hrs and provided with drinking water (100 ml) and food (75 g). The water and food consumption as well as urine output over a 24 hr period was determined. This process was repeated every week until 10 weeks after STZ induction.
Following administration of STZ, blood was collected at 1-week intervals by tail snips. Levels of TNF-α, IL-1β, IL-6, IL-4, IL-10, resistin (all from Peprotech, Mexico), and insulin (Lincon, St. Charles, Mo.) in sera were determined by ELISA as per the manufacturer's instructions.
Age and sex-matched ICR mice were fasted for 20 hrs and then injected i.p. with STZ (90 mg/Kg). Six-hours later following STZ injection mice were administered CSP1306 or PBS daily in a single dose orally for 30 days. Blood was collected by tail snipping once every week to measure glucose levels using Accu-Chek® glucometer and to determine cytokine levels by ELISA as described above. CPSI 1306 has the following formula: […]
NIDDM was induced in ICR mice by a single intraperitoneal injection of STZ (90 mg/kg). On day 5 post-STZ injection and thereafter mice were orally administered CPSI-1306 (1 mg/kg or 0.1 mg/Kg) daily for 30 days. Mice were bled once a week by tail sniping and levels of glucose (A) and inflammatory cytokines IL-6 (B) and TNF-α (C) in the blood were determined. The data are from one representative experiment out of three. * p<0.05.

[1] abbreviates: ICR mice with STZ injection, 0.1 and 0.01 mg/kg.
Setting [2] is: ICR mice, STZ-induced NIDDM, oral administration, ELISA.

For the compound `O=C(C[C@H]1CC(c2ccc(F)cc2F)=NO1)N1CCOCC1` [CPSI-1306], under setting [1], the blood glucose result is “significant reduction”, the polyuria result is recorded as “less polyuria”, the “serum levels of inflammatory cytokines” value is given as “significant reduction” and the “severity of NIDDM” value was “reduced severity of NIDDM”. Moreover, the “blood glucose levels after stoppage of treatment” value (ICR mice with STZ injection, after stoppage of treatment, data not shown) was “spike in blood glucose levels”. Also, the blood glucose levels entry (ICR mice, listed as CSP156) was “significant drop”. The blood glucose levels result (ICR mice, listed as CSP1306) is “significantly lowered blood glucose levels in majority of animals”. The blood glucose levels result (ICR mice, listed as CSPI-1306) was “highly effective”. Also, under setting [2], the “level of pro-inflammatory cytokine IL-6 in the sera” value is reported as “significant reduction” and the “level of pro-inflammatory cytokine TNF-α in the sera” value is reported as “significant reduction”. In addition, the “serum levels of inflammatory cytokines / pro-inflammatory cytokine production” value (ICR mice, STZ-induced NIDDM, oral administration, listed as CSP156) was “reduction in serum levels of inflammatory cytokines”. For the same compound, the “serum levels of inflammatory cytokines / pro-inflammatory cytokine production” value (ICR mice, STZ-induced NIDDM, oral administration, listed as CSPI-1306) is “highly effective in suppressing pro-inflammatory cytokine production”. Moreover, under “outbred ICR mice, STZ 90 mg/kg i.p., oral 1 mg/kg or 0.1 mg/Kg daily for 30 days from day 5 post-STZ”, the “severity and progression of STZ-induced NIDDM (FIG. 6)” value is “Significantly Reduces Severity and Progression”.
